Laboratory results reported in patent publication US20090275070A1, “Compounds and Methods of Identifying, Synthesizing, Optimizing and Profiling Protein Modulators” (priority 2005, published 2009).

What was measured:
[1] = system: wild type non-transformed Ba/F3 cells; test: phenoresponse-based cellular assay, wild type Ba/F3 control cells; parameters: species or system murine; details: Mus musculus; concentration inhibiting growth of the cell line by 50% in the cellular assay; wt BaF3 control cells; read-out: wt BaF3 (IC50 activity category)
[2] = biological target: T1, Ba/F3 cells expressing p210Bcr-Abl-T315I (Homo sapiens, UniProt P00519, T315I, cells depend on it); test: phenoresponse-based cellular assay (cell count and viability), Ba/F3 T315I test cells; parameters: species or system murine; details: concentration inhibiting growth of the cell line by 50% in the cellular assay, read-out: T315I (IC50 activity category);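 also: cells counted by automated microcell imaging, viability scored by trypan blue exclusion, phenoresponse judged against parental Ba/F3 and Ba/F3 carrying wild-type p210Bcr-Abl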
T1 construct: fused on or other part: P11274 (Breakpoint cluster region protein)

Compound	IC50 [1] [nM]	GI50 [2] [nM]
Oc1c(Cl)cc(Br)cc1/C=N/Nc1ncc(F)c(N2CCOCC2)n1	< 1000	< 300
Oc1ccccc1/C=N/Nc1ncc(F)c(N2CCOCC2)n1	< 10000	< 10000
Fc1cnc(N/N=C/c2ccccn2)nc1N1CCOCC1	< 1000	< 1000
Oc1ccc(Br)cc1/C=N/Nc1ncc(F)c(N2CCOCC2)n1	< 1000	< 1000
Cc1ccccc1/C=N/Nc1ncc(F)c(N2CCOCC2)n1	≥ 10000	> 10000
Cc1ccc(/C=N/Nc2ncc(F)c(N3CCOCC3)n2)cc1	≥ 10000	> 10000
Fc1cnc(N/N=C/c2ccccc2)nc1N1CCOCC1	≥ 10000	> 10000
Oc1c(Cl)cc(-c2cccc(C(F)(F)F)c2)cc1/C=N/Nc1ncc(F)c(N2CCOCC2)n1	< 1000	< 300
O=C(Nc1cccc(C(F)(F)F)c1)c1cc(Cl)c(O)c(/C=N\Nc2ncc(F)c(N3CCOCC3)n2)c1	< 1000	< 1000
O=C(Nc1cccc(C(F)(F)F)c1)c1cccc(/C=N/Nc2ncc(F)c(N3CCOCC3)n2)n1	≥ 10000	> 10000
O=C(Nc1cccc(C(F)(F)F)c1)c1ccc(/C=N/Nc2ncc(F)c(N3CCOCC3)n2)nc1	< 10000	< 1000
Fc1cnc(N/N=C/c2ccc(-c3cccc(C(F)(F)F)c3)cn2)nc1N1CCOCC1	< 1000	< 1000
O=C(C/C=N/Nc1ncc(F)c(N2CCOCC2)n1)Nc1cccc(C(F)(F)F)c1	≥ 10000	> 10000
Fc1cnc(N/N=C/c2ccc(Nc3cccc(C(F)(F)F)c3)cn2)nc1N1CCOCC1	< 300	< 300
Cc1cccc(Cl)c1NC(=O)C/C=N/Nc1ncc(F)c(N2CCOCC2)n1	≥ 10000	> 10000
Oc1ccc(-c2ccc(Nc3ccc(/C=N/Nc4ncc(F)c(N5CCOCC5)n4)nc3)cc2C(F)(F)F)cc1	< 300	< 300
Oc1cccc(-c2ccc(Nc3ccc(/C=N/Nc4ncc(F)c(N5CCOCC5)n4)nc3)cc2)c1	< 300	< 300
Fc1cnc(N/N=C/c2ccc(Nc3ccc(N4CCOCC4)cc3)cn2)nc1N1CCOCC1	< 1000	< 1000

Compound	IC50 [1] [nM]	GI50 [2] [nM]
Fc1cnc(N/N=C/c2ccc(Nc3ccc(-c4cccnc4)cc3)cn2)nc1N1CCOCC1	< 1000	< 300
Cc1cccc(Cl)c1-c1ccc(Nc2ccc(/C=N/Nc3ncc(F)c(N4CCOCC4)n3)nc2)cc1	< 300	< 300
Fc1cnc(N/N=C/c2ccc(Nc3ccc(-c4ccccn4)c(Cl)c3)cn2)nc1N1CCOCC1	< 1000	< 1000
CC(C(=O)O)c1ccc(Nc2ccc(/C=N/Nc3ncc(F)c(N4CCOCC4)n3)nc2)cc1 (stereo not drawn)	≥ 10000	> 10000
Oc1cccc(-c2cccc(Nc3ccc(/C=N/Nc4ncc(F)c(N5CCOCC5)n4)nc3)c2)c1	< 1000	< 300
Fc1cnc(N/N=C/c2ccc(Nc3cccc(-n4ccnc4)c3)cn2)nc1N1CCOCC1	< 1000	< 1000
Cc1cc(Nc2ccc(/C=N/Nc3ncc(F)c(N4CCOCC4)n3)nc2)cc(N2CCNCC2)c1	< 10000	< 1000
O=C(NNc1ncc(F)c(N2CCOCC2)n1)c1ccc(Nc2cccc(C(F)(F)F)c2)cn1	< 1000	< 1000
Cc1cc(Nc2cccc(C(F)(F)F)c2)ccc1/C=N/Nc1ncc(F)c(N2CCOCC2)n1	≥ 10000	> 10000
CN(C)c1cc(O)cc(Nc2ccc(/C=N/Nc3ncc(F)c(N4CCOCC4)n3)nc2)c1	< 10000	< 1000
Fc1cnc(N/N=C/c2ccc(Nc3cccc(C(F)(F)F)c3)cn2)nc1NCc1ccccc1	< 300	< 300
Fc1cnc(N/N=C/c2ccc(Nc3cccc(C(F)(F)F)c3)cn2)nc1NCC1CC1	< 300	< 300
Fc1cnc(N/N=C/c2ccc(Nc3cccc(C(F)(F)F)c3)cn2)nc1NCCN1CCOCC1	< 300	< 300
CN(/N=C/c1ccc(Nc2cccc(C(F)(F)F)c2)cn1)c1ncc(F)c(N2CCOCC2)n1	< 300	< 300
C/C(=N\Nc1ncc(F)c(N2CCOCC2)n1)c1ccc(Nc2cccc(C(F)(F)F)c2)cn1	< 300	< 300
Fc1cnc(N/N=C/c2ccc(Nc3cccc(C(F)(F)F)c3)cn2)nc1-c1cncc(-c2ccccc2)c1	< 1000	< 1000
Fc1cnc(N/N=C/c2ccc(Nc3cccc(C(F)(F)F)c3)cn2)nc1-c1cncc(C2CC2)c1	< 10000	< 10000
Oc1cccc(Nc2cccc(Nc3ccc(/C=N/Nc4ncc(F)c(N5CCOCC5)n4)nc3)c2)c1	< 1000	< 1000
